From US12281070B2, “Water soluble antiviral and antimicrobial compound and process for preparation thereof” (priority 2020, dated 2025)

Assays:
[1] = test system: SARS CoV-2 NIV2020-770 isolate; assay type: cell-based; conditions: 72 hours
[2] = test system: Vero CCL-81 cells
[3] = test system: PI-3 virus (enveloped virus); assay type: cell-based, Bovine parainfluenza virus
[4] = Oral toxicity LD50, rat; assay type: in vivo
[5] = Water solubility / dispersibility of the synthesized substance; assay type: physicochemical; conditions: semi solid creamy substance as synthesized
[6] = test system: Bacillus subtilis (ATCC 6633); experiment: Evaluation of antimicrobial activity, B. subtilis; assay type: cell-based; conditions: 10 mg/10 ml
[7] = test system: Staphylococcus aureus (ATCC 6538); experiment: Evaluation of antimicrobial activity, S. aureus; assay type: cell-based; conditions: 10 mg/10 ml
[8] = test system: avian influenza; design: species or system poultry birds; conditions: in vivo
[9] = Oral toxicity LD50, mice; assay type: in vivo
[10] = test system: Escherichia coli (ATCC 8739); experiment: Evaluation of antimicrobial activity, E. coli; assay type: cell-based; conditions: 10 mg/10 ml

Compound: CCCCCCCCCCCCCCCCC(=O)OC(O)CO (stereo not shown) [Formula II, 1,2-dihydroxyethyl heptadecanoate]
- inhibition of the RdRp-2 gene [1]: ~40%
- cytotoxicity [2]: Dose dependent cytotoxicity
- CC50 ([2]; 72 hours): 600 fold dilution
- % Log reduction [3]: 99.25%
- Log10 Reduction [3]: 2.12 Log10
- Virus Titer (Log10 TCID50/mL) [3]: 2.50 Log10 TCID50/mL
- LD 50 [4]: 4000 mg per kg wt
- solubility in water [5]: water soluble and/or water dispersible
- % reduction after 30 seconds ([6]; contact 30 seconds, inoculum 76000000 Cfu/ml): 27.63%
- % reduction after 1 minute ([6]; contact 1 minute): 44.74%
- % reduction after 5 minutes ([6]; contact 5 minutes): 59.21%
- % reduction after 10 minutes ([6]; contact 10 minutes): 65.79%
- % reduction after 20 minutes ([6]; contact 20 minutes): 99.9789%
- % reduction after 30 seconds ([7]; contact 30 seconds, inoculum 74000000 Cfu/ml): 31.08%
- % reduction after 1 minute ([7]; contact 1 minute): 43.24%
- % reduction after 5 minutes ([7]; contact 5 minutes): 54.05%
- % reduction after 10 minutes ([7]; contact 10 minutes): 62.16%
- % reduction after 20 minutes ([7]; contact 20 minutes): 99.9627%
- reduction in mortality of avian influenza infected birds [8]: 92%
- LD 50 [9]: 4000 mg per kg wt
- % reduction after 30 seconds ([10]; contact 30 seconds, inoculum 70000000 Cfu/ml): 31.43%
- % reduction after 1 minute ([10]; contact 1 minute): 55.71%
- % reduction after 5 minutes ([10]; contact 5 minutes): 60%
- % reduction after 10 minutes ([10]; contact 10 minutes): 64.29%
- % reduction after 20 minutes ([10]; contact 20 minutes): 99.9851%
